According to patent US20250122211A1, “NITROGEN-CONTAINING TETRACYCLIC COMPOUND, PREPARATION METHOD THEREFOR, AND MEDICAL USE THEREOF” (Jiangsu Hengrui Pharmaceuticals Co., Ltd., priority 2021, published 2025):
Where two headings read alike, the source gives them in different places.

Experiments:
Assay type in all cases: cell-based
H358 cells = assay: H358 proliferation assay (CellTiter-Glo); settings: 120 h incubation, read-out: IC50 (nM), inhibitory activity against H358 cell proliferation
Procedure: The inhibitory activity of the compounds of the present disclosure against H358 cell proliferation was measured. Below is a brief description of the experimental method: H358 cells (ATCC, CRL-5807) were cultured in RPMI1640 medium (Hyclone, SH30809.01) containing 10% fetal bovine serum (Corning, 35-076-CV) (i.e., complete medium). On the first day of the experiment, H358 cells were seeded into a 96-well plate at a density of 1200 cells/well using complete medium, with 100 μL of cell suspension per well, and the plate was incubated overnight in a 37° C., 5% CO2 cell incubator. On the second day, the test compounds, prepared in complete medium and serially diluted, were added at 10 μL/well. The final concentrations of the compounds were 9 concentration points obtained by a 5-fold serial dilution from 10 μM. A blank control containing 0.5% DMSO was set up. The plate was incubated for 120 h in a 37° C., 5% CO2 cell incubator. On the seventh day, the 96-well cell plate was removed from the incubator, and CellTiter-Glo® Luminescent Cell Viability Assay (Promega, G7573) was added at 50 μL/well. After 10 min of room temperature incubation, luminescence signals were measured using a multifunctional microplate reader (PerkinElmer, EnVision® 2105). The IC50 values for the inhibitory activity of the compounds were calculated using Graphpad Prism software.

MIA PaCa-2 cells = assay: MIA PaCa-2 cell proliferation assay (CellTiter-Glo); settings: 72 h incubation, read-out: IC50 (nM), inhibitory activity against MIA PaCa-2 cell proliferation
Procedure: The inhibitory activity of the compounds of the present disclosure against MIA PaCa-2 cell proliferation was measured. Below is a brief description of the experimental method:
MIA PaCa-2 cells (ATCC, CRL-1420) were cultured in DMEM/HIGH GLUCOSE medium (GE, SH30243.01) containing 10% fetal bovine serum (Corning, 35-076-CV) and 2.5% horse serum (Beyotime Biological Tech., C0262) (i.e., complete medium). On the first day of the experiment, MIA PaCa-2 cells were seeded into a 96-well plate at a density of 500 cells/well using complete medium, with 90 µL of cell suspension per well, and the plate was incubated overnight in a 37° C., 5% CO2 cell incubator. On the second day, the test compounds, prepared in complete medium and serially diluted, were added at 10 μL/well. The final concentrations of the compounds were 9 concentration points obtained by a 5-fold serial dilution from 10 μM. A blank control containing 0.5% DMSO was set up. The plate was incubated for 72 h in a 37° C., 5% CO2 cell incubator. On the fifth day, the 96-well cell plate was removed from the incubator, and CellTiter-Glo® Luminescent Cell Viability Assay (Promega, G7573) was added at 50 μL/well. After 10 min of room temperature incubation, luminescence signals were measured using a multifunctional microplate reader (PerkinElmer, EnVision2015). The IC50 values for the inhibitory activity of the compounds were calculated using Graphpad Prism software.

[1] = system: ERK phosphorylation in H358 cells; assay: H358 cell ERK phosphorylation inhibition assay (HTRF pERK/total ERK); settings: 3 h incubation, ratio of pERK/total ERK, read-out: IC50 (nM), inhibitory effects on ERK phosphorylation in H358 cells
Procedure: The inhibitory effects of the compounds of the present disclosure on ERK phosphorylation in H358 cells were measured. Below is a brief description of the experimental method: H358 cells (ATCC, CRL-5807) were cultured in RPMI1640 medium (Hyclone, SH30809.01) containing 10% fetal bovine serum (Corning, 35-076-CV) (i.e., complete medium). On the first day of the experiment, H358 cells were seeded into a 96-well plate at a density of 25,000 cells/well using complete medium, with 190 μL of cell suspension per well, and the plate was incubated overnight in a 37° C., 5% CO2 cell incubator. On the second day, the test compounds, prepared in complete medium and serially diluted, were added at 10 μL/well. The final concentrations of the compounds were 9 concentration points obtained by a 6-fold serial dilution from 10 μM. A blank control containing 0.5% DMSO was set up. The plate was incubated for 3 h in a 37° C., 5% CO2 cell incubator. After 3 h, the 96-well cell culture plate was removed from the incubator, and the culture medium was pipetted off. PBS (Shanghai BasalMedia Technologies Co., Ltd., B320) was added at 200 μL/well for a single wash. PBS was pipetted off, and lysis buffer (Cisbio, 64KL1FDF) containing a blocking agent (Cisbio, 64KB1AAC) was added at 50 μL/well. The plate was incubated on a shaker for 30 min at room temperature to lyse the cells. After lysis, the lysates were well mixed by pipetting, and 16 μL of lysate was transferred from each well to two HTRF 96-well assay plates (Cisbio, 66PL96100). Subsequently, 4 μL of a premixed phospho-ERK1/2 antibody solution (Cisbio, 64AERPEG) or 4 μL of a premixed total-ERK1/2 antibody solution (Cisbio, 64NRKPEG) was added to each of the plates. The plates were sealed with a plate sealer film, centrifuged for 1 min in a microplate centrifuge, and incubated overnight at room temperature in the dark. On the third day, fluorescence values at an excitation wavelength of 337 nm and emission wavelengths of 665 nm and 620 nm were measured using a PHERAstar multifunctional microplate reader (BMG Labtech, PHERAstar FS). The IC50 values for the inhibitory activity of the compounds were calculated using Graphpad Prism software, based on the compound concentration and the ratio of pERK/total ERK.

| SMILES | IC50 (H358 cells) [nM] | IC50 (MIA PaCa-2 cells) [nM] | IC50 [1] [nM] | IC50 (H358 cells; Homo sapiens, NCI-H358, 120 h) [nM] | IC50 (MIA PaCa-2 cells; Homo sapiens, MIA PaCa-2, 72 h) [nM] | IC50 ([1]; Homo sapiens, NCI-H358, 3 h) [nM] |
| --- | --- | --- | --- | --- | --- | --- |
| C=CC(=O)N1CCN2C(=O)c3c(F)c(F)c(-c4ccc(F)c5sc(N)c(C#N)c45)c4cnn(c34)CC[C@H]2C1 (atropisomer, axis not shown) [Example 11-P1, (R)-4-((S)-10-Acryloyl-1,2-difluoro-14-oxo-8,8a,9,10,11,12-hexahydro-7H,14H-pyrazino[1′,2′:5.6][1,5]diazocino[3,2,1-hi]indazol-3-yl)-2-amino-7-fluorobenzo[b]thiophene-3-carbonitrile] | 2.25 | 2.71 | 7.67 | – | – | – |
| C=CC(=O)N1CCN2C(=O)c3c(F)c(F)c(-c4ccc(F)c5sc(N)c(C#N)c45)c4cnn(c34)CC[C@H]2C1 (atropisomer, axis not shown) [Example 11-P2, (S)-4-((S)-10-Acryloyl-1,2-difluoro-14-oxo-8,8a,9,10,11,12-hexahydro-7H,14H-pyrazino[1′,2′:5.6][1,5]diazocino[3,2,1-hi]indazol-3-yl)-2-amino-7-fluorobenzo[b]thiophene-3-carbonitrile] | 0.32 | 0.46 | 0.09 | – | – | – |
| C=CC(=O)N1CCN2C(=O)c3cc(F)c(-c4ccc(F)c5sc(N)c(C#N)c45)c4c(F)cn(c34)CC[C@H]2C1 (atropisomer, axis not shown) [Example 13-P2, (S)-4-((S)-10-Acryloyl-2,4-difluoro-14-oxo-8,8a,9,10,11,12-hexahydro-7H,14H-pyrazino[1′,2′:5.6][1,5]diazocino[3,2,1-hi]indol-3-yl)-2-amino-7-fluorobenzo[b]thiophene-3-carbonitrile] | – | – | – | 11.4 | 20.5 | 0.76 |
| C=C(F)C(=O)N1CCN2C(=O)c3cc(F)c(-c4ccc(F)c5sc(N)c(C#N)c45)c4c(C)nn(c34)CC[C@H]2C1 (atropisomer, axis not shown) [Example 15-P1, (R)-2-Amino-7-fluoro-4-((S)-2-fluoro-10-(2-fluoroacryloyl)-4-methyl-14-oxo-8,8a,9,10,11,12-hexahydro-7H,14H-pyrazino[1′,2′:5,6][1,5]diazocino[3,2,1-hi]indazol-3-yl)benzo[b]thiophene-3-carbonitrile] | 41.6 | 56.8 | 19.7 | – | – | – |
| C=C(F)C(=O)N1CCN2C(=O)c3cc(F)c(-c4ccc(F)c5sc(N)c(C#N)c45)c4c(C)nn(c34)CC[C@H]2C1 (atropisomer, axis not shown) [Example 15-P2, (S)-2-Amino-7-fluoro-4-((S)-2-fluoro-10-(2-fluoroacryloyl)-4-methyl-14-oxo-8,8a,9,10,11,12-hexahydro-7H,14H-pyrazino[1′,2′:5,6][1,5]diazocino[3,2,1-hi]indazol-3-yl)benzo[b]thiophene-3-carbonitrile] | 4.21 | 7.75 | 3.94 | – | – | – |
| C=C(F)C(=O)N1CCN2C(=O)c3cc(F)c(-c4ccc(F)c5sc(N)c(C#N)c45)c4c(F)nn(c34)CC[C@H]2C1 (atropisomer, axis not shown) [Example 16-P2, (S)-2-Amino-4-((S)-2,4-difluoro-10-(2-fluoroacryloyl)-14-oxo-8,8a,9,10,11,12-hexahydro-7H,14H-pyrazino[1′,2′:5,6][1,5]diazocino[3,2,1-hi]indazol-3-yl)-7-fluorobenzo[b]thiophene-3-carbonitrile] | – | – | – | 8 | 4.56 | 1.06 |
| C=C(F)C(=O)N1CCN2C(=O)c3cc(F)c(-c4ccc(F)c5sc(N)c(C#N)c45)c4c(Cl)nn(c34)CC[C@H]2C1 (atropisomer, axis not shown) [Example 17-P2, (S)-2-Amino-4-((S)-4-chloro-2-fluoro-10-(2-fluoroacryloyl)-14-oxo-8,8a,9,10,11,12-hexahydro-7H,14H-pyrazino[1′,2′:5,6][1,5]diazocino[3,2,1-hi]indazol-3-yl)-7-fluorobenzo[b]thiophene-3-carbonitrile] | – | – | – | 1.87 | 1.88 | 2 |
| C=CC(=O)N1CCN2C(=O)c3cc(F)c(-c4ccc(F)c5sc(N)c(C#N)c45)c4c(C)cn(c34)CC[C@H]2C1 (atropisomer, axis not shown) [Example 18-P2, (S)-4-((S)-10-Acryloyl-2-fluoro-4-methyl-14-oxo-8,8a,9,10,11,12-hexahydro-7H,14H-pyrazino[1′,2′:5,6][1,5]diazocino[3,2,1-hi]indol-3-yl)-2-amino-7-fluorobenzo[b]thiophene-3-carbonitrile] | – | – | – | 9.57 | 9.16 | 1.09 |
| C=CC(=O)N1CCN2C(=O)c3cc(F)c(-c4ccc(F)c5sc(N)c(C#N)c45)c4c(Cl)cn(c34)CC[C@H]2C1 (atropisomer, axis not shown) [Example 19-P2, (S)-4-((S)-10-Acryloyl-4-chloro-2-fluoro-14-oxo-8,8a,9,10,11,12-hexahydro-7H,14H-pyrazino[1′,2′:5,6][1,5]diazocino[3,2,1-hi]indol-3-yl)-2-amino-7-fluorobenzo[b]thiophene-3-carbonitrile] | – | – | – | 5.65 | 4.9 | 0.97 |
| C=CC(=O)N1CCN2C(=O)c3cc(F)c(-c4ccc(F)c5sc(N)c(C#N)c45)c4nnn(c34)CC[C@H]2C1 (atropisomer, axis not shown) [Example 20-P1, (R)-4-((S)-9-Acryloyl-2-fluoro-12-oxo-7,7a,8,9,10,11-hexahydro-6H,12H-4,5,5a,9,11a-pentaazabenzo[5,6]cycloocta[1,2,3-cd]inden-3-yl)-2-amino-7-fluorobenzo[b]thiophene-3-carbonitrile] | 4.94 | 1.66 | 3.67 | – | – | – |
| C=CC(=O)N1CCN2C(=O)c3cc(F)c(-c4ccc(F)c5sc(N)c(C#N)c45)c4nnn(c34)CC[C@H]2C1 (atropisomer, axis not shown) [Example 20-P2, (S)-4-((S)-9-Acryloyl-2-fluoro-12-oxo-7,7a,8,9,10,11-hexahydro-6H,12H-4,5,5a,9,11a-pentaazabenzo[5,6]cycloocta[1,2,3-cd]inden-3-yl)-2-amino-7-fluorobenzo[b]thiophene-3-carbonitrile] | – | – | 0.88 | 7.9 | 1.21 | – |
